Consider 52 compounds from PubChem BioAssay AID1996.

In brackets after ≈: the same amount, converted by molar mass.

The conditions of this data set: buffer; pH 7.4; 200.0 µM.
In general, solubility (kinetic) refers to the concentration staying in solution when a stock, usually in DMSO, is diluted into the medium. Regarding `COc1ccc(NC(=O)COC(=O)CC2CCCC2)cc1`, the solubility (kinetic) is greater than 43.7 µg/mL.

`COC(=O)c1ccccc1NC(=O)NN1CCN(C)CC1` displayed a kinetic solubility greater than 43.9 µg/mL.

`CCNC(=O)Nc1ccc(S(=O)(=O)Nc2cnc(C)nc2C)cc1`: the kinetic solubility was greater than 52.4 µg/mL.

As for `NC(=O)COC(=O)CCCSc1nc2ccccc2s1`, the solubility (kinetic) is greater than 46.6 µg/mL.

Compound `CC1CCc2c(sc(NC(=O)COC(=O)C3CCCO3)c2C#N)C1` (configuration not stated) yielded a kinetic solubility of 34.2 µg/mL (≈ 98.2 µM).

`CCN(Cc1ccncc1)C(=O)c1ccco1` returned a solubility (kinetic) of 29.4 µg/mL (≈ 128 µM). This solubility kinetic and that of the compound before are within 1.5-fold of each other.

For the compound `CC(OC(=O)C1=COCCO1)C(=O)NC1(C#N)CCCCC1` (configuration not stated), the solubility (kinetic) came out at 45.7 µg/mL (≈ 148 µM).

`Brc1ccc(-c2cnco2)cc1`: the kinetic solubility is 2.2 µg/mL (≈ 9.82 µM).

With `CC(C)c1ccccc1NC(=O)c1ccc2ncsc2c1`, the kinetic solubility was found to be 21 µg/mL (≈ 70.9 µM).

The compound `COc1ccc(S(=O)(=O)N2CC(=O)Nc3ccccc32)cc1Cl` returned a solubility (kinetic) greater than 52.9 µg/mL.

`Cc1ccc(NC(=O)CCSc2nnc(C)o2)cc1` registered a solubility (kinetic) greater than 41.6 µg/mL.

For `O=S(=O)(NC1=NCCCCC1)c1ccccc1Cl`, the solubility (kinetic) was greater than 43 µg/mL.

Compound `Cc1ccc(Nc2c3c(nc4ccccc24)CCC3)cc1.Cl` registered a kinetic solubility of 33.4 µg/mL.

With `CN(c1c[nH]c(=O)[nH]c1=O)C1CCCCC1`, the solubility (kinetic) was greater than 33.5 µg/mL.

Consider `Cc1cc(C)n(CC(=O)N2CCc3ccccc32)c(=O)c1C#N`, for which the solubility (kinetic) worked out at 7 µg/mL (≈ 22.8 µM).

For the compound `COc1ccc(NC(=O)CNC(=O)c2ccco2)cc1`, the solubility (kinetic) is 40.5 µg/mL (≈ 148 µM).

For `Cc1cc(Cl)nc(-c2ccccc2)n1`, the solubility (kinetic) turned out to be 0.3 µg/mL (≈ 1.47 µM).

Consider `CCOC(=O)/C(C#N)=C/Nc1cc(C(C)(C)C)sc1C(C)=O`, for which the kinetic solubility was less than 0.3 µg/mL.

Compound `COc1ccccc1CC(=O)O/N=C(\N)c1ccccn1` showed a kinetic solubility greater than 42.8 µg/mL.

Regarding `O=C(N/N=C/c1ccccc1Cl)C1CC1`, the solubility (kinetic) is greater than 33.4 µg/mL.

On to `Cc1ccc(C(=O)NCCNC(=O)COc2ccc(Cl)cc2)cn1`, for which the solubility (kinetic) is greater than 52.2 µg/mL.

Consider `CCOC(=O)C1CCN(C(=O)c2[nH]c3ccc(OC)cc3c2C)CC1`, for which the solubility (kinetic) was 48.3 µg/mL (≈ 140 µM).

`CC(NC(=O)/C(C#N)=C/c1cccs1)c1ccccc1` (configuration not stated) displayed a kinetic solubility of 3.6 µg/mL (≈ 12.7 µM).

Turning to `CCOc1ncccc1C(=O)Nc1ccccc1N1CCOCC1`, the kinetic solubility is greater than 49.1 µg/mL.

For `N#Cc1ccccc1OCC(=O)OCC(=O)N1CCCC1`, the solubility (kinetic) is greater than 43.2 µg/mL.

`O=C(Nc1ccccc1NS(=O)(=O)c1ccc(F)cc1)C1CCC1` returned a solubility (kinetic) of 21.1 µg/mL (≈ 60.6 µM).

In turn, `CCCC(=O)Nc1cc(C)c(NC(=O)c2ccco2)cn1` had a kinetic solubility of 42.8 µg/mL (≈ 149 µM).

As for `CC(NC(=O)Cn1cccc1)c1ccccc1` (configuration not stated), the solubility (kinetic) was greater than 34.2 µg/mL.

On to `c1ccc(-c2noc(CC3CCCCC3)n2)nc1`, for which the solubility (kinetic) turned out to be 32.2 µg/mL (≈ 132 µM).

For the compound `O=C(O)Cc1sc(-c2ccccc2)nc1-c1cccs1`, the kinetic solubility is greater than 45.2 µg/mL.

Compound `COc1ccc(OCC(=O)O/N=C(\N)c2ccc(OC)cc2)cc1` had a solubility (kinetic) of 1.2 µg/mL (≈ 3.63 µM).

For the compound `N#Cc1cccc(Nc2c3c(nc4ccccc24)CCC3)c1`, the solubility (kinetic) worked out at 8.4 µg/mL (≈ 29.4 µM).

As for `CC(=O)OC(C(=O)NC1CCCCC1)c1ccccc1F` (configuration not stated), the kinetic solubility was greater than 44 µg/mL.

Consider `Cc1cc(OC(=O)c2ccccc2C)c([N+](=O)[O-])c(=O)[nH]1`, for which the kinetic solubility is greater than 43.2 µg/mL.

Take `CC1(C)SC[C@H](C(=O)Nc2cccc(Cl)c2)N1C=O`: the solubility (kinetic) was greater than 44.8 µg/mL.

As to `CN1CCN(CCCNC(=S)Nc2ccc(F)c(Cl)c2)CC1`, the solubility (kinetic) was determined as 43 µg/mL (≈ 125 µM).

Compound `N#Cc1ccc(COc2cccc3cccnc23)cc1` registered a solubility (kinetic) of 32.4 µg/mL (≈ 124 µM).

Take `CC(NCCC(Cc1ccccc1)c1ccco1)c1ccccc1` (configuration not stated): the solubility (kinetic) is greater than 47.9 µg/mL.

In the case of `CCN1C(=O)/C(=C\c2cccc(OC(=O)c3ccco3)c2)SC1=S`, the kinetic solubility was less than 0.8 µg/mL.

`Cl.O=C(OCCN1CCOCC1)c1cccc(F)c1` came in with a kinetic solubility greater than 43.5 µg/mL.

In turn, `O=C(c1ccoc1)N1CCC(CO)(CCc2ccccc2)CC1` registered a kinetic solubility of 46 µg/mL (≈ 147 µM).

As to `COc1ccccc1C(=O)Nc1nc2ccccc2s1`, the solubility (kinetic) was less than 0.3 µg/mL.

With `COc1cccc(NC(=O)c2ccc3nsnc3c2)c1`, the solubility (kinetic) is 24.5 µg/mL (≈ 85.9 µM).

With `CC(OC(=O)C1CC1)C(=O)Nc1cc(C(F)(F)F)ccc1Cl` (configuration not stated), the solubility (kinetic) worked out at 32 µg/mL (≈ 95.3 µM). This solubility kinetic and that of the compound before are within 1.5-fold of each other.

The compound `O=C(CNC(=O)c1ccccc1)NCc1ccc(Cl)cc1` gave a solubility (kinetic) of 10.6 µg/mL (≈ 35 µM).

The compound `Cc1cc(NC(=O)c2ccccc2C)no1` came in with a solubility (kinetic) greater than 32.4 µg/mL.

`O=S(=O)(Nc1ncccn1)c1ccc(Cl)cc1` returned a solubility (kinetic) of 40.1 µg/mL (≈ 149 µM).

`O=C(COC(=O)CN1C(=O)NC2(CCCCC2)C1=O)Nc1cc(F)ccc1F` returned a solubility (kinetic) greater than 59.3 µg/mL.

As to `Cc1cc(NS(=O)(=O)c2ccc3c(c2)OCCO3)no1`, the solubility (kinetic) was 31.2 µg/mL (≈ 105 µM).

`COc1cccc(/C=C/C(=O)OCC(=O)Nc2cccc(S(=O)(=O)NC3=NCCCCC3)c2)c1` had a solubility (kinetic) of 13.5 µg/mL (≈ 27.8 µM).

With `CSc1ccccc1NC(=O)COC(=O)c1ccccc1O`, the kinetic solubility came to 2 µg/mL (≈ 6.3 µM). This solubility kinetic is about 6.8-fold lower than that of the compound before.

On to `Cc1cccc(C(=O)N2CCCC(c3nc(-c4ccc(F)cc4)no3)C2)c1` (configuration not stated), for which the kinetic solubility was 12.4 µg/mL (≈ 33.9 µM).
